Measurements from patent publication US8431704B2, “Quinoline or isoquinoline substituted P2X7 antagonists” (Janssen Pharmaceutica NV, priority 2008, dated 2013).

Key:
hP2X7 = molecular target: T1, hP2X7 (Homo sapiens, UniProt Q99572); assay: P2X7 antagonism: ligand-induced Ca2+ flux in 1321N1 astrocytoma cells overexpressing hP2X7; type: cell-based; settings: pIC50 = -log(IC50), read-out: hP2RX7pIC50 (mean pIC50 values) (converted)
T1 construct: expressed in transfected cells; host or cells: 1321N1 astrocytoma cells
T1 sequence (Q99572 1-595): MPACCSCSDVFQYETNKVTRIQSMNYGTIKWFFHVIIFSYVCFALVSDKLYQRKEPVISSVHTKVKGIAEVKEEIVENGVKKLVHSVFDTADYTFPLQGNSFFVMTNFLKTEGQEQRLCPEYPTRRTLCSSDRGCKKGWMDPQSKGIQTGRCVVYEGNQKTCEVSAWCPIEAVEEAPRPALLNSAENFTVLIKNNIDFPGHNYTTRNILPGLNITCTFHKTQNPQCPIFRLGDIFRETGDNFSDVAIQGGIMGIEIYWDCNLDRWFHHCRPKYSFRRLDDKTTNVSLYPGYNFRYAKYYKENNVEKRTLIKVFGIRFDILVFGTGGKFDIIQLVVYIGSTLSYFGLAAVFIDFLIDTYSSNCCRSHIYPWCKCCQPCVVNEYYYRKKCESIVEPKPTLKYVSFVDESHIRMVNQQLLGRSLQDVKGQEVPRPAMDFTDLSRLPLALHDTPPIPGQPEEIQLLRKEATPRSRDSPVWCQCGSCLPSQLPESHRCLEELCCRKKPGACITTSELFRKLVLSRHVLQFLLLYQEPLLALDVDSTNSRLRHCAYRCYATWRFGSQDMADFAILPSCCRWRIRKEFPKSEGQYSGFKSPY
In short: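 Intracellular Ca2+ tracked with a quenched Ca2+-sensitive fluorescent dye kit (excitation 488 nm, emission 510-560 nm) in 1321N1 cells, before and after agonist addition in presence of antagonist. Effects expressed as % control and IC50.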

P2X7 = molecular target: T2, P2X7 (Homo sapiens, UniProt Q99572); assay: THP-1 YoPro uptake assay (BzATP-stimulated Yo-Pro-1 uptake); type: cell-based; settings: Table F-10, THP-1 cells, read-out: mean pIC50 values for P2X7 antagonism (converted)
T2 construct: endogenous in cells; host or cells: THP-1 human monocytic cell line
T2 sequence (Q99572 1-595): T1 sequence (Q99572 1-595)

SMILES | IC50 (hP2X7) | melting point | IC50 (P2X7)
O=C(NCC(c1cnc(C(F)(F)F)nc1)N1CCC(F)(F)CC1)c1cccc2ncccc12 (single isomer, unassigned) [Compound 46] | 0.0275 µM | 217.7 °C | 
O=C(NCC(c1ccc(Cl)nc1)N1CCC(F)(F)CC1)c1cccc2ncccc12 (stereo not shown) [Compound 7] | 0.0251 µM | 187.3 °C | 
O=C(NCC(c1ccc(C(F)(F)F)nc1)N1CCNCC1)c1cccc2ncccc12 (stereo not shown) [Compound 8] | > 10 µM | 198 °C | 
O=C(NCC(c1ccc(C(F)(F)F)nc1)N1CCC(O)(c2ccc(Cl)cc2)CC1)c1cccc2ncccc12 (stereo not shown) [Compound 29] | > 10 µM | 155 to 162.2 °C | 
NC(=O)C1CCN(C(CNC(=O)c2cccc3ncccc23)c2ccc(C(F)(F)F)nc2)CC1 (stereo not shown) [Compound 34] | > 10 µM | 253.7 to 254.3 °C | 
O=C(NCC(c1cnc(C(F)(F)F)nc1)N1CCCCC1)c1cccc2ncccc12 (stereo not shown) [Compound 35] | 0.0214 µM | 183.6 °C | 
O=C(NCC(c1cnc(C(F)(F)F)nc1)N1CCC(F)(F)CC1)c1cccc2nc(NCCO)ccc12 (stereo not shown) [Compound 39] | 0.0339 µM | 125.3 °C | 
O=C(NCC(c1cnc(C(F)(F)F)nc1)N1CCC(F)(F)CC1)c1cccc2nc(O)ccc12 (stereo not shown) [Compound 77] | 0.224 µM | 206.9 °C | 
O=C(NCC(c1cnc(C(F)(F)F)nc1)N1CCC(F)(F)CC1)c1cccc2nc(N3CCNCC3)ccc12 (stereo not shown) [Compound 78] | 0.0257 µM | 202.9 °C | 
Cc1ncc(C(CNC(=O)c2cccc3nc(N4CCOCC4)ccc23)N2CCC(F)(F)CC2)cn1 (stereo not shown) [Compound 96] | 0.0479 µM | 160 °C | 
O=C(NCC(c1cnc(C(F)(F)F)nc1)N1CCOCC1)c1cccc2nc(N3CCNCC3)ccc12 (stereo not shown) [Compound 102] | 0.0724 µM | 234.3 °C | 
CC(C)(C)OC(=O)N1CCN(c2ccc3c(C(=O)NCC(c4cnc(C(F)(F)F)nc4)N4CCCC(F)(F)C4)cccc3n2)CC1 (stereo not shown) [Compound 106] | 0.138 µM | 159.7 °C | 
CC(C)N1CCN(c2ccc3c(C(=O)NCC(c4cnc(C(F)(F)F)nc4)N4CCC(F)(F)CC4)cccc3n2)CC1 (stereo not shown) [Compound 134] |  | 236.3 °C | 
CC1CN(c2ccc3c(C(=O)NCC(c4cnc(C(F)(F)F)nc4)N4CCC(F)(F)CC4)cccc3n2)CC(C)O1 (stereo not shown) [Compound 140] | 0.0912 µM | 191.5 °C | 
CSc1ncc(C(CNC(=O)c2c(Cl)ccc3ncccc23)N2CCC(F)(F)CC2)cn1 (stereo not shown) [Compound 582, 6-chloro-quinoline-5-carboxylic acid [2-(4,4-difluoro-piperidin-1-yl)-2-(2-methylsulfanyl-pyrimidin-5-yl)-ethyl]-amide] |  |  | 0.0107 µM
O=C(NCC(c1cnc(C(F)(F)F)nc1)N1CCC(F)(F)CC1)c1c(Cl)ccc2nc(O)ccc12 (stereo not shown) [Compound 593] |  |  | 0.112 µM
Nc1ccc2c(C(=O)NCC(c3cnc(C(F)(F)F)nc3)N3CCC(F)(F)CC3)c(Cl)ccc2n1 (stereo not shown) [Compound 596] |  |  | 0.00355 µM
O=C(NCC(c1cnc(C(F)(F)F)nc1)N1CCOCC1)c1c(F)ccc2ncccc12 (stereo not shown) [Compound 609] |  |  | 0.0331 µM
